Test results from publication PMC10611578, “Aβ1-6A2V(D) peptide, effective on Aβ aggregation, inhibits tau misfolding and protects the brain after traumatic brain injury” (Molecular Psychiatry, 2023).
One block for each molecule: values may come before it. Square brackets hold non-standard residues; d marks the D form. Peptide text beside a SMILES is read from it.

Tests used:
[1] = ref [16]; cited from earlier work
[2] = tested on: C. elegans; details: in vivo; cited from earlier work
[3] = MALDI-TOF imaging brain biodistribution after intranasal administration, TBI mice; format: in vivo, mouse (3xTg-AD
Experimental: The Aβ1-6A2V(D) was administered to 3xTg-AD and 24-month-old WT TBI underwent mice by repeated intranasal administration as described in [39]. In brief, mice were acclimatized for 2 weeks before the surgery and the treatment. Aβ1-6A2V(D) was administered to mice at 50 mg/kg body weight (b.w.) (about 5 µL/nostril/mouse, 10 µL total/each treatment session/mouse) starting at 10 min post-TBI and every 48 h up to 6 days post-injury, using a 20 µL pipette and gel loading pipette tip. At each treatment session, the mice were held in place for 30 seconds after the first 5 µL administration and then left free to move in a cage for 30 seconds before administering the remaining treatment/vehicle. Weight was assessed before each intranasal administration. Neurological functions were monitored longitudinally and plasma levels of neurofilament light (NfL) were assessed at sacrifice as detailed in the Supplementary information (sections ‘Behavioural test’ and ‘Plasmatic neurofilament light’). Seven days after surgery, the mice were sacrificed, the brain was removed, and ipsilateral cortical areas were dissected out, immediately frozen on dry ice, and stored at −80 °C until their use for biochemical and C. elegans studies. At 4 h, 24 h, 48 h, and 72 h after surgery, a subset of mice (n = 3) was sacrificed, and their brains were removed, frozen immediately in liquid nitrogen, and stored at −80 °C until matrix-assisted laser desorption/ionization (MALDI)-imaging analysis. The investigators were blinded to treatment allocation during the assessment of the results.
Fig. 3 Biodistribution of Aβ1-6A2V(D) in brain parenchyma of 3xTg-AD injured mice after intranasal administration. A Mice were subjected to TBI, randomly distributed into two groups, and treated intranasally 10 min post-injury with either a single dose of Aβ1-6A2V(D) (50 mg/kg b.w.) or saline (vehicle). MALDI-imaging analyses were performed 4-h, 24-h, 48-h, and 72-h post-administration. B Representative images of Aβ1-6A2V(D) biodistribution assessed by MALDI-TOF and imaged as a heatmap (red > Aβ1-6A2V(D) concentration > deep purple).
Studies were carried out as described by Catania et al. to confirm that the intranasal administration of Aβ1-6A2V(D) to injured mice allows the efficient distribution of the peptide in the brain tissue. Brains from injured 3xTg-AD mice were used to prepare […] sections (14 μm thickness) at -20°C in a cryostat. Fourteen µm coronal sections of fresh-frozen brains were cut and serially collected from bregma +0.8 mm to -2.7 mm at 700 µm intervals for MALDI analysis and Cresyl violet staining to pair Aβ1-6A2V(D) biodistribution to anatomical structures. […]

[4] = target: T1, BACE (Homo sapiens, UniProt P56817); assay: BACE1 Inhibitor Screening Kit in vitro; format: biochemical; details: BACE1 Inhibitor Screening Kit ab283408, 60 min at 37 °C, fluorescence Ex/Em 345/500 nm; read-out: IC50 for inhibition of BACE activity in vitro
T1 construct: purchased Abcam ab283408
Experimental: The ability of Aβ1-6A2V(D) to inhibit BACE activity was measured in vitro as described in the BACE1 Inhibitor Screening Kit ab283408 (Abcam, Cambridge, UK). Increasing concentrations of Aβ1-6A2V(D) were employed. Fluorescence was read for 60 min at 37°C at Ex/Em= 345/500 nm using a spectrophotometer (Infinite M200, Tecan, Männedorf, Switzerland). BACE activity was measured in the ipsilateral cortex of 3xTg-AD TBI mice treated with or without the peptide using the β-Secretase Activity Fluorometric Assay Kit MAK237 (Sigma Aldrich, St. Louis, USA). The protein concentration of the samples was analyzed using the BCA assay, as previously described. The samples were diluted to obtain a final concentration of 25 µg proteins/50 µL and then processed according to the kit instructions. Fluorescence was read at Ex/Em = 355/495 nm.
Supplementary Figure 7. Effect of Aβ1-6A2V(D) on the BACE activity. (A) Dose-dependent inhibitory effect of Aβ1-6A2V(D) on BACE activity determined in vitro. (B) BACE activity determined in the brain homogenates of 3xTg-AD TBI mice (N = 3) treated (TBI Aβ1-6A2V(D)) or not (TBI vehicle) with 50 mg/kg b.w. Aβ1-6A2V(D) and sacrificed 24 h after the last administration. Data are mean ± SD, one-way ANOVA, and Bonferroni’s post hoc test.

[5] = tested on: tau (P301L mouse brain homogenate); assay: Western blot of total tau level in P301L brain lysate; format: biochemical, human tau with P301L mutation, JNPL3 mice; details: 50 µM, 2 h at 25 °C, 30 µg protein/100 µL, PBS pH 7.4, DAKO/actin band; mean ± SD, N = 3, p < 0.05
From the text: Male JNPL3 mice expressing 0N4R human tau with the P301L mutation (P301L) were obtained from Taconic Biosciences (New York, USA) (Tau Model 2508). Controls were non-transgenic (Non-tg) male mice with the same mixed C57BL/6, DBA/2, SW genetic background as P301L mice. Triple transgenic mice harboring human PS1(M146 V), APP(SW), and MAPT(P301L) transgenes, referred to as 3xTg-AD, were kindly provided by Dr. Oddo [34]. Male and female C57BL/6 J mice, referred to as wild type (WT), were purchased from Envigo (Italy).
Fig. 2 Effect of Aβ1-6A2V-TAT(D) on the toxicity caused in C. elegans by misfolded tau in P301L and TBI brain homogenates. A Brains from P301L mice were homogenized in 10 mM PBS, pH 7.4, and given to worms alone or in the presence of Aβ1-6A2V-TAT(D). B Worms were administered with brain homogenate (30 µg protein/100 worms/100 µL) in the absence or presence of Aβ1-6A2V-TAT(D) (0-200 µM). […] E Representative western blotting showing the total level of tau and tau quantification expressed as the mean volume of the DAKO band immunoreactivity/actin band. […] The reaction was then stopped, and samples were analyzed by western blot. […]
Lysates from brain homogenates of P301L mice (30 µg protein/100 µL) incubated for 2 h at 25°C with 50 µM Aβ1-6A2V-TAT(D), 50 µM Aβ1-6A2V(D), 50 µM TAT or 10 mM PBS, pH 7.4, were analyzed by immunoblotting using 10% SDS-PAGE gel and Western blotting analysis. […]

[6] = tested on: Aβ soluble protofibrils; details: ref [3]; cited from earlier work
From the text: Alzheimer’s disease (AD) is a double proteinopathy characterized by amyloid-β (Aβ) and tau pathology and is the most common dementia in older adults. Despite enormous efforts that have been made in the last few decades to find effective therapy, there are still few weapons available to fight this disease. […] Since the approval of aducanumab, ...

T1 sequence (P56817 46-501, species assumed): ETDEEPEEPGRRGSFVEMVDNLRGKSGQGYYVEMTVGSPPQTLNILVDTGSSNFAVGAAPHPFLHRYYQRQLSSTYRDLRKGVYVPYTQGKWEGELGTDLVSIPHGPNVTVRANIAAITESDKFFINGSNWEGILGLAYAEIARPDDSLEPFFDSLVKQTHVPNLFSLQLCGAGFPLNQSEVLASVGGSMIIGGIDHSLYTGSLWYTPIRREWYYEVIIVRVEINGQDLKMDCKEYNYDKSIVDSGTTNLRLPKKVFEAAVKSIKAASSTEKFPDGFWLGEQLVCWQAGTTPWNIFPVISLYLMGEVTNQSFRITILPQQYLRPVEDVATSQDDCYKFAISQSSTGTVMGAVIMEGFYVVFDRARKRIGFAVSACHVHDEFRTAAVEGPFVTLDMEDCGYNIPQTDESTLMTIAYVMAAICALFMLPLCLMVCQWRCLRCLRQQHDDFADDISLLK

IC50 [4]: 126 nM
Molecule: CC(C)[C@@H](NC(=O)[C@H](N)CC(=O)O)C(=O)N[C@H](CCC(=O)O)C(=O)N[C@H](Cc1ccccc1)C(=O)N[C@H](CCCNC(=N)N)C(=O)N[C@H](Cc1c[nH]cn1)C(=O)O [Aβ1-6A2V(D)] (H-[dD][dV][dE][dF][dR][dH]-OH)
Brain distribution after single intranasal administration, AD mouse [1]: distributed in the AD mouse brain | Passage through the worm's membrane [2]: only in the presence of the TAT sequence, Aβ1-6A2V(D) can pass through the worm’s membrane | Peptide level in brain areas close to the contusion site, 24 h ([3]; intranasal 50 mg/kg b.w., 24 h after administration): high levels of peptide still detectable 24 h after the administration | Presence of peptide in brain regions ([3]; single intranasal dose 50 mg/kg b.w. 10 min post-injury, 4-h and 24-h): present in the cerebral cortex, hippocampus, caudate-putamen, and cerebellum | Peptide level in brain, 72 h ([3]; single intranasal dose 50 mg/kg b.w. 10 min post-injury, 72 h after administration): not detectable | Peptide level in ipsi- and contra-lateral hemispheres, up to 48 h ([3]; single intranasal dose 50 mg/kg b.w. 10 min post-injury, high levels persisting, although low, up to 48 h): high Aβ1-6A2V(D) levels were detected in the ipsi- and contra-lateral hemispheres that persisted, although at low levels, up to 48 h

Molecule: GRKKRRQRRR [TAT, TAT48-56(D) (…), reference compound]
Total tau protein level in P301L brain homogenate [5]: but not TAT alone, significantly reduced the tau protein level

B1: Lecanemab: a humanized monoclonal antibody that binds with high affinity to Aβ soluble protofibrils (antibody, chains of the INN, looked up, V domains shown)
VH: EVQLVESGGGLVQPGGSLRLSCSASGFTFSSFGMHWVRQAPGKGLEWVAYISSGSSTIYYGDTVKGRFTISRDNAKNSLFLQMSSLRAEDTAVYYCAREGGYYYGRSYYTMDYWGQGTTVTVSS
VL: DVVMTQSPLSLPVTPGAPASISCRSSQSIVHSNGNTYLEWYLQKPGQSPKLLIYKVSNRFSGVPDRFSGSGSGTDFTLRISRVEAEDVGIYYCFQGSHVPPTFGPGTKLEIK
Binding affinity to Aβ soluble protofibrils [6]: binds with high affinity to Aβ soluble protofibrils
